Laboratory results: US7235252B2, “Method of preparing organic peroxyacids” (priority 2002, dated 2007)

Tests used:
[1] = Peracetic acid formation rate and stability with N-acyl donors in parent solution (double titration); assay type: physicochemical; details: equimolar N-acyl donor dispersed in parent solution
Excerpt: The other conditions (temperature, humidity, generator composition) being the same, equimolar amounts of the three N-acyl donors were dispersed in the parent solution to determine the formation rate of peracetic acid in the solution and the stability with time of such a concentration. The method adopted for quantitative determination of organic peroxyacid in the presence of a large excess of hydrogen peroxide (in this and in the following tests) was a sequential double-titration, the first of which is a permanganometric test designed to titre and eliminate any hydrogen peroxide in excess, and this was immediately followed by an iodometric titration to determine the concentration of the remaining organic peroxide. The results are shown below, both as activation rate (see FIG. 1), and stability of the peracetic acid concentration (see FIG. 2) are concerned.

[2] = Preliminary assessment of acetyl donating compounds; assay type: physicochemical
Excerpt: Search work was initially directed towards finding out the best N-acyl and/or O-acyl activator of all those available and disclosed in the prior art referred to above. The features sought for in this initial search were: • a rapidly acting acylating agent (i.e. provided with an electrophilic carbonyl carbon) suitable for causing a perhydrolysis reaction due to electron-withdrawing effect on the carbonyl carbon and for providing a sufficiently high concentration of its respective peracid within short times (20–30 minutes) for the specified objects; • a good conservation under standard storage conditions (at temperatures ranging from 20° and 40° C.). • an ability to yield after activation an activated solution in which the organic peroxyacid concentration is as stable as possible. […]

[3] = system: bacterial spores (sporicidal activity); experiment: Minimum effective concentration (CME) by sporicidal activity; assay type: cell-based; details: minimum peracetic acid concentration with sporicidal activity over contact time of 15 minutes
Procedure: In the search study carried out with an endoscope washing machine, the solution was used by operating 10 full daily cycles of high-level disinfection or, better, cold-chemical sterilization for a total of 120 cycles. The contact time set for the sterilization step was 30 minutes. As it will be noted, immediately after activation, the concentration increases at a fast-rate, overcomes the minimum effective concentration level (Minimum Effective Concentration Level ═CME) equal to 0.05% w/v just after 15–20 minutes and reaches a maximum value equal to 0.35% w/v after 24 hours. During the following days, concentration decreases slowly down to a minimum effective level below which the effectiveness set forth below is not provided any longer. This threshold level (CME) was fixed and defined by means of the minimum % concentration of peracetic acid at which a sporicidal activity is still detected over a contact time of 15 minutes.

SMILES | Stability of peracetic acid concentration with time (FIG. 2) [1] | Stability under standard storage conditions [2] | Minimum Effective Concentration Level (CME) [3] [% w/v]
CC(=O)N1CCCCCC1=O [N-acetylcaprolactam] | good stability |  | 
CC(=O)N1C(=O)CCC1=O [N-acetylsuccinimide] | behavior similar to that of N-OSU | poor stability | 
CC(=O)OO [peracetic acid] |  |  | 0.05
CC(=O)ON1C(=O)CCC1=O [N-acetoxysuccinimide] | poor stability with time | poor stability | 
